{"source": "paper PMC3920478", "about": "“Small molecule-mediated refolding and activation of myosin motor function” (eLife, 2014)", "key": {"β-cardiac myosin S1": {"biological_target": "T1, β-cardiac myosin S1 (Sus scrofa, UniProt P79293)", "T1 construct": "S1 and HMM fragments were produced by proteolytic digestion of the full-length proteins with 0.05 mg/ml papain; from tissue; host or cells: porcine cardiac muscle", "T1 sequence (P79293 1-843 limits assumed)": "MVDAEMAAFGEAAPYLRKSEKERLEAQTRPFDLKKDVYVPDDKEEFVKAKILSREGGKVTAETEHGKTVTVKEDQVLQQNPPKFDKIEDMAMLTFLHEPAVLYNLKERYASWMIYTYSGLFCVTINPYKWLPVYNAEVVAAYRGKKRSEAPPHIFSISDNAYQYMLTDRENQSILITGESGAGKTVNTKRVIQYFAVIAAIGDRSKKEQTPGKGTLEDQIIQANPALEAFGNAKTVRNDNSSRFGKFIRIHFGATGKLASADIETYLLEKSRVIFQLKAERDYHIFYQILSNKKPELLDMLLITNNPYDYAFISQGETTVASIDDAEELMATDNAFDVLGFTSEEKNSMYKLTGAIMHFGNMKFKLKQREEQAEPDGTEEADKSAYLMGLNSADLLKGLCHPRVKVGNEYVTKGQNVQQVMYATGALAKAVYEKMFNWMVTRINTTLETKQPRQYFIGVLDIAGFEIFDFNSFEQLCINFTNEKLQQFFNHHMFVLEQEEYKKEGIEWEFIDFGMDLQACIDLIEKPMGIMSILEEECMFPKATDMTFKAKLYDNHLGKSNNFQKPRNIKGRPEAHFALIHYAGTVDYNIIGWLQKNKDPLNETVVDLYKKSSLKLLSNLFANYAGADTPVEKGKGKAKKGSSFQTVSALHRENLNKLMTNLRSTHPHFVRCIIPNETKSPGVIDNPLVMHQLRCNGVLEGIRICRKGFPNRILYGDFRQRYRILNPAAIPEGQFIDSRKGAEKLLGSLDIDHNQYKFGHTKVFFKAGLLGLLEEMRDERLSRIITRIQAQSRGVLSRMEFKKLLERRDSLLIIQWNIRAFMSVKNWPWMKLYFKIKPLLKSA", "test": "Microscale thermophoresis direct binding", "parameters": "species or system Porcine", "from_the_text": "(§1) Proteolytic fragments were further purified by actin-coprecipitation."}, "Dd myosin-5 motor domain": {"biological_target": "T2, Dd myosin-5 motor domain (Dictyostelium discoideum, UniProt P54697)", "T2 sequence (P54697 1-821 limits assumed)": "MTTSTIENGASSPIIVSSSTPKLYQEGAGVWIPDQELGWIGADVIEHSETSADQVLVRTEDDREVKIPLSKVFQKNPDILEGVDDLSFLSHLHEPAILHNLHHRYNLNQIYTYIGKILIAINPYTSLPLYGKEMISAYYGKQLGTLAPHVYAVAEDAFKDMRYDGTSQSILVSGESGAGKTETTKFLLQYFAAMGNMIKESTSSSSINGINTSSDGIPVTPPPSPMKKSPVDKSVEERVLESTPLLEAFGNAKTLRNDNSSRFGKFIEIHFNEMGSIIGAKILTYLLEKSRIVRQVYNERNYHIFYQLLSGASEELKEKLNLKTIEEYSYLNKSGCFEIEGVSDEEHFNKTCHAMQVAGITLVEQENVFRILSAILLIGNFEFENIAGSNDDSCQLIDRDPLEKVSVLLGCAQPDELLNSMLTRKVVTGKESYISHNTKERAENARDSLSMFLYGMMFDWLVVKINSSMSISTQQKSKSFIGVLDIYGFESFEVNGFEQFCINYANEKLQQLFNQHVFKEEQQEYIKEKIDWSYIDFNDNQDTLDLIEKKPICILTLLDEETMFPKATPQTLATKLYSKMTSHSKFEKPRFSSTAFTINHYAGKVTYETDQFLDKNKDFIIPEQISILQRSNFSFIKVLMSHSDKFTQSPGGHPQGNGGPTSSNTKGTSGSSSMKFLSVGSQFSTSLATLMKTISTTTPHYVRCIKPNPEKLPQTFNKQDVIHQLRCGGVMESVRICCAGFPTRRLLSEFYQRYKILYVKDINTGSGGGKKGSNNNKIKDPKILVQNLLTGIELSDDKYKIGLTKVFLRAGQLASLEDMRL", "test": "Direct binding to motor domain construct", "from_the_text": "as §1"}, "Dd myosin-2 motor domain": {"biological_target": "T3, Dd myosin-2 motor domain (Dictyostelium discoideum, UniProt P08799)", "T3 sequence (P08799 1-761 limits assumed)": "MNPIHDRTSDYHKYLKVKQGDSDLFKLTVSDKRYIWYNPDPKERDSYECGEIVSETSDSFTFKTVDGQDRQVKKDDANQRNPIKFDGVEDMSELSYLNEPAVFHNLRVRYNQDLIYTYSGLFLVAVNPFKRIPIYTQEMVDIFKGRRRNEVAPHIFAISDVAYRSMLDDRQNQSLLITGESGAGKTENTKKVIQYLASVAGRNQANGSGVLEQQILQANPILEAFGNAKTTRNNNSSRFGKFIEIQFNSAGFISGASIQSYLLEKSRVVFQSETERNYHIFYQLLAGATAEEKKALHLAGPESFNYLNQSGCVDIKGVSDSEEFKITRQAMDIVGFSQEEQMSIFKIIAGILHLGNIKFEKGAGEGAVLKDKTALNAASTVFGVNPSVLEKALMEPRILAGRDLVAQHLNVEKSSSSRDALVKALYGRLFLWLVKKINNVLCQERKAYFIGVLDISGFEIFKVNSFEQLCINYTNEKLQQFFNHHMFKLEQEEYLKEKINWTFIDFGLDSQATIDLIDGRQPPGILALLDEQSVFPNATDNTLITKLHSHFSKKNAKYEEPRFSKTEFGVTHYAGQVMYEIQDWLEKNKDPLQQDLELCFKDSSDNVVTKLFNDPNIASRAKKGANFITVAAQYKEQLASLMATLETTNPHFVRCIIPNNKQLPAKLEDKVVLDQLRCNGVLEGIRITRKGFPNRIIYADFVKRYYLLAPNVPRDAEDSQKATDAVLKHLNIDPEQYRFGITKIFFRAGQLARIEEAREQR", "test": "Steady-state basal and actin-activated Mg2+-ATPase (NADH-coupled assay)", "type": "biochemical", "method": "as §1\n(§2) Basal and actin-activated Mg^2+-ATPase activities were measured using the NADH-coupled assay described previously ([Furch et al., 1998]) adapted for higher throughput screens for a temperature controlled plate reader (Multiscan FC, Thermo Scientific, Waltham, MA) at 25°C. EMD 57033 was added to the reaction mixture in the absence of nucleotide and incubated before the reaction was started by the addition of ATP. Control measurements were carried out in the absence of drug, as well as in the presence of according concentrations of the non-binding (−)-enantiomer EMD 57439 to account for possible absorption effects. […] Data points are mean values from 3 to 5 independent experiments. Error bars indicate standard deviations."}, "[1]": {"biological_target": "T4, Dd myosin-5b motor domain (Dictyostelium discoideum, UniProt P54697)", "T4 construct": "Dd myosin-5b motor domain; His tag; made in house; host or cells: Dictyostelium discoideum AX3-ORF+ cells", "T4 sequence (P54697 1-821 limits assumed)": "T2 sequence (P54697 1-821 limits assumed)", "test": "Steady-state basal and actin-activated Mg2+-ATPase (NADH-coupled assay)", "type": "biochemical", "method": "as §1, §2"}}, "data": [{"compound": "COc1ccc(C(=O)N2CCCc3cc(C4=NNC(=O)SC4C)ccc32)cc1OC", "note": "(centres unmarked) [EMD 57033]", "values": [{"measurement": "Binding stoichiometry", "setting": "β-cardiac myosin S1", "value": "one molecule of EMD 57033 per myosin head"}, {"measurement": "Kd", "setting": "β-cardiac myosin S1; fluorescently labeled β-cardiac myosin S1, 100 nM, fit to Hill equation, read-out: Binding affinity (MST), KD", "value": 7.3, "unit": "µM"}, {"measurement": "Direct binding to the motor domain", "setting": "Dd myosin-5 motor domain", "value": "Direct binding of EMD 57033 to the motor domain was observed"}, {"measurement": "AC50", "setting": "Dd myosin-2 motor domain", "value": 25.8, "unit": "µM"}, {"measurement": "Normalized maximal ATPase activation (basal)", "setting": "Dd myosin-2 motor domain", "value": 1.4}, {"measurement": "Normalized maximal ATPase activation (with 30 µM actin)", "setting": "Dd myosin-2 motor domain; 30 µM actin", "value": 2.8}, {"measurement": "Basal ATP turnover relative to that expected for 100% active protein", "setting": "Dd myosin-2 motor domain; saturating EMD 57033", "value": 1.4, "unit": "fold"}, {"measurement": "AC50", "setting": "[1]", "value": 35.4, "unit": "µM"}, {"measurement": "Activation potency relative to β-cardiac myosin (weaker)", "setting": "[1]", "value": "fivefold"}, {"measurement": "Normalized maximal ATPase activation (basal)", "setting": "[1]", "value": 1.4}, {"measurement": "Normalized maximal ATPase activation (with 30 µM actin)", "setting": "[1]; 30 µM actin", "value": 1.6}]}]}
